{
  "source": "paper PMC11554305",
  "about": "“Functional identification of soluble uric acid as an endogenous inhibitor of CD38” (eLife, 2024)",
  "key": {"THP-1 cells": {"tested_on": "THP-1 cells", "assay": "Intracellular NAD+ assay in THP-1 cells", "format": "cell-based, human", "details": "sUA 0–10 mg/dL pre-incubation 2 hr, then stimulation 6 hr", "experimental": "Naïve THP-1 cells were pre-incubated with sUA (0–10 mg/dL) in RPMI-1640 medium containing 1% FBS for 2 hr, then the cells were washed twice with sterile PBS and stimulated with MSU crystals, cLPS, zymosan, or ATP for 6 hr. Subsequently, the cells were washed twice with sterile PBS, and then a total of 100 μL 5% ice-cold PCA was used to extract NAD^+ from cells in each well and medium as mentioned above.\nAs mentioned above, samples (cells, tissues, blood, or reaction buffer) were treated with ice-cold PCA, after extraction and centrifugation, the collected supernatant was appropriately diluted in 5% ice-cold PCA when applicable, and then was vortexed for 30 s and centrifuged at 15,000 rpm, 4°C for 5 min. Afterward, 30 μL supernatant was added into 200 μL 5 mM ammonium formate containing internal standards at indicated concentrations. Then, all the samples were vortexed for 30 s and centrifuged at 15,000 rpm, 4°C for 5 min again, the final supernatant was used for subsequent measurement. All the samples after handling were immediately analyzed in this study without freezing and thawing.\nThe LC-MS/MS system consisted of a triple quadrupole LCMS-8050 (Shimadzu) and an LC-30A system (Shimadzu). […] NAD^+ and NMN were measured independently in this study, as their peaks were hardly separated within a short time."}, "[1]": {"tested_on": "bone marrow-derived macrophages (BMDMs)", "assay": "Extracellular NMN degradation in primed BMDMs", "format": "cell-based, mouse", "details": "WT BMDMs, not in CD38 KO BMDMs; NMN 100 μM, 6 hr", "experimental": "Bone marrow cells were isolated from 10- to 12-week-old WT or CD38 KO mice (both male and female) by washing the marrow cavity with sterile PBS. The collected bone marrow cells were filtered by 70 μm strainers and then centrifuged at 1000 rpm, 4°C for 5 min. The cell pellet was resuspended in 2 mL red blood cell (RBC) lysis buffer for 30 s, then 8 mL complete RPMI-1640 medium (10% FBS, 1% penicillin/streptomycin, and 50 μM 2-mercaptoethanol) was added to terminate the lysis. After 5 min centrifugation at 1000 rpm, 4°C, the cells were resuspended in fresh complete RPMI-1640 medium and maintained for 4 hr in an incubator. Adherent cells were discarded, whereas non-adherent cells were cultured in complete RPMI-1640 medium containing 20 ng/mL M-CSF. After 3-day differentiation, the medium was replaced with fresh complete RPMI-1640 medium containing 20 ng/mL M-CSF. On the 7th day, BMDMs were collected for subsequent experiments. BMDMs were primed with 100 ng/mL ultrapure LPS for 4 hr for canonical inflammasome assay. For metabolic assay of NMN, BMDMs were primed with 100 ng/mL ultrapure LPS for 8 hr to induce higher protein expression of CD38.\nWT and CD38 KO BMDMs were primed with 100 ng/mL ultrapure LPS for 8 hr, then the cells were washed twice with sterile PBS. Primed BMDMs were maintained in RPMI-1640 medium supplemented with 100 μM NMN in the presence or absence of sUA. […]"}},
  "data": [
    {"smiles": "O=c1[nH]c(=O)c2[nH]c(=O)[nH]c2[nH]1", "note": "[sUA, uric acid]", "values": [
      {"measurement": "Intracellular NAD+", "setting": "THP-1 cells", "result": "boosted intracellular NAD^+"},
      {"measurement": "Extracellular NMN availability", "setting": "[1]", "result": "increased extracellular NMN availability"}
    ]}
  ]
}
